Data taken from the supplement of paper PMC10307832.

How the values were obtained:
Assay in all cases: relative viability (nuclei count vs DMSO), 5 days (fraction); higher = more cells survive
NCI-H650 = test system: NCI-H650
Outline: (§1)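 A single step with final 0.05% Triton X-100, 1% formaldehyde and 1 ug/ml Hoechst fixed the cells and stained nuclei 5 days after treatment. Lung cancer cell lines in 1536-well plates had been treated by pin tool the day after seeding with one drug alone or a fixed anchor-drug dose plus five library-drug doses (not always all listed) in √10 steps, and nuclei were counted on 4× images. Relative viability is the ratio of nuclei in treated wells to nuclei in vehicle wells, taken as the median of duplicate plates.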

NCI-H23 = test system: NCI-H23
Outline: as §1

HOP-62 = test system: HOP-62
Outline: as §1

NCI-H2126 = test system: NCI-H2126
Outline: as §1

NCI-H441 = test system: NCI-H441
Outline: as §1

NCI-H2170 = test system: NCI-H2170
Outline: as §1

LOU-NH91 = test system: LOU-NH91
Outline: as §1

NCI-H1437 = test system: NCI-H1437
Outline: as §1

ChaGo-K-1 = test system: ChaGo-K-1
Outline: as §1

NCI-H1793 = test system: NCI-H1793
Outline: as §1

NCI-H647 = test system: NCI-H647
Outline: as §1

PC-14 = test system: PC-14
Outline: as §1

SW 1573 = test system: SW 1573
Outline: as §1

SW 900 = test system: SW 900
Outline: as §1

NCI-H2347 = test system: NCI-H2347
Outline: as §1

NCI-H727 = test system: NCI-H727
Outline: as §1

NCI-H2023 = test system: NCI-H2023
Outline: as §1

LCLC-103H = test system: LCLC-103H
Outline: as §1

HCC-44 = test system: HCC-44
Outline: as §1

EPLC-272H = test system: EPLC-272H
Outline: as §1

NCI-H2405 = test system: NCI-H2405
Outline: as §1

NCI-H460 = test system: NCI-H460
Outline: as §1

EMC-BAC-2 = test system: EMC-BAC-2
Outline: as §1

NCI-H2009 = test system: NCI-H2009
Outline: as §1

NCI-H520 = test system: NCI-H520
Outline: as §1

CCCCCCCCCCCC1=C(O)C(=O)C=C(O)C1=O [Embelin] + CC(=O)c1c(C)c2cnc(Nc3ccc(N4CCNCC4)cn3)nc2n(C2CCCC2)c1=O [Palbociclib] (partner 0.5 µM)
relative viability (NCI-H650; first compound 0.08 µM): 0.272
relative viability (NCI-H650; first compound 0.8 µM): 0.407
relative viability (NCI-H650; first compound 2.53 µM): 0.34
relative viability (NCI-H650; first compound 8 µM): 0.313
relative viability (NCI-H23; first compound 0.08 µM): 0.516
relative viability (NCI-H23; first compound 0.8 µM): 0.543
relative viability (NCI-H23; first compound 2.53 µM): 0.533
relative viability (NCI-H23; first compound 8 µM): 0.594
relative viability (HOP-62; first compound 0.08 µM): 0.433
relative viability (HOP-62; first compound 0.8 µM): 0.489
relative viability (HOP-62; first compound 2.53 µM): 0.451
relative viability (HOP-62; first compound 8 µM): 0.392
relative viability (NCI-H2126; first compound 0.08 µM): 0.342
relative viability (NCI-H2126; first compound 0.8 µM): 0.342
relative viability (NCI-H2126; first compound 2.53 µM): 0.345
relative viability (NCI-H2126; first compound 8 µM): 0.339
relative viability (NCI-H441; first compound 0.08 µM): 0.217
relative viability (NCI-H441; first compound 0.8 µM): 0.221
relative viability (NCI-H441; first compound 2.53 µM): 0.193
relative viability (NCI-H441; first compound 8 µM): 0.195
relative viability (NCI-H2170; first compound 0.08 µM): 0.407
relative viability (NCI-H2170; first compound 0.8 µM): 0.418
relative viability (NCI-H2170; first compound 2.53 µM): 0.516
relative viability (NCI-H2170; first compound 8 µM): 0.382
relative viability (LOU-NH91; first compound 0.08 µM): 0.551
relative viability (LOU-NH91; first compound 0.8 µM): 0.556
relative viability (LOU-NH91; first compound 2.53 µM): 0.542
relative viability (LOU-NH91; first compound 8 µM): 0.52
relative viability (NCI-H1437; first compound 0.08 µM): 0.313
relative viability (NCI-H1437; first compound 0.8 µM): 0.3
relative viability (NCI-H1437; first compound 2.53 µM): 0.391
relative viability (NCI-H1437; first compound 8 µM): 0.335
relative viability (ChaGo-K-1; first compound 0.08 µM): 0.911
relative viability (ChaGo-K-1; first compound 0.8 µM): 1.01
relative viability (ChaGo-K-1; first compound 2.53 µM): 1.01
relative viability (ChaGo-K-1; first compound 8 µM): 0.981
relative viability (NCI-H1793; first compound 0.08 µM): 0.317
relative viability (NCI-H1793; first compound 0.8 µM): 0.363
relative viability (NCI-H1793; first compound 2.53 µM): 0.411
relative viability (NCI-H1793; first compound 8 µM): 0.363
relative viability (NCI-H647; first compound 0.08 µM): 0.405
relative viability (NCI-H647; first compound 0.8 µM): 0.448
relative viability (NCI-H647; first compound 2.53 µM): 0.528
relative viability (NCI-H647; first compound 8 µM): 0.38
relative viability (PC-14; first compound 0.08 µM): 0.548
relative viability (PC-14; first compound 0.8 µM): 0.597
relative viability (PC-14; first compound 2.53 µM): 0.819
relative viability (PC-14; first compound 8 µM): 0.569
relative viability (SW 1573; first compound 0.08 µM): 0.344
relative viability (SW 1573; first compound 0.8 µM): 0.498
relative viability (SW 1573; first compound 2.53 µM): 0.37
relative viability (SW 1573; first compound 8 µM): 0.422
relative viability (SW 900; first compound 0.08 µM): 0.644
relative viability (SW 900; first compound 0.8 µM): 0.576
relative viability (SW 900; first compound 2.53 µM): 0.668
relative viability (SW 900; first compound 8 µM): 0.549
relative viability (NCI-H2347; first compound 0.08 µM): 0.47
relative viability (NCI-H2347; first compound 0.8 µM): 0.387
relative viability (NCI-H2347; first compound 2.53 µM): 0.451
relative viability (NCI-H2347; first compound 8 µM): 0.389
relative viability (NCI-H727; first compound 0.08 µM): 0.657
relative viability (NCI-H727; first compound 0.8 µM): 0.701
relative viability (NCI-H727; first compound 2.53 µM): 0.693
relative viability (NCI-H727; first compound 8 µM): 0.661
relative viability (NCI-H2023; first compound 0.08 µM): 0.379
relative viability (NCI-H2023; first compound 0.8 µM): 0.345
relative viability (NCI-H2023; first compound 2.53 µM): 0.455
relative viability (NCI-H2023; first compound 8 µM): 0.351
relative viability (LCLC-103H; first compound 0.08 µM): 0.496
relative viability (LCLC-103H; first compound 0.8 µM): 0.459
relative viability (LCLC-103H; first compound 2.53 µM): 0.461
relative viability (LCLC-103H; first compound 8 µM): 0.511
relative viability (HCC-44; first compound 0.08 µM): 0.951
relative viability (HCC-44; first compound 0.8 µM): 1.02
relative viability (HCC-44; first compound 2.53 µM): 0.984
relative viability (HCC-44; first compound 8 µM): 0.979
relative viability (EPLC-272H; first compound 0.08 µM): 0.361
relative viability (EPLC-272H; first compound 0.8 µM): 0.328
relative viability (EPLC-272H; first compound 2.53 µM): 0.358
relative viability (EPLC-272H; first compound 8 µM): 0.324
relative viability (NCI-H2405; first compound 0.08 µM): 0.543
relative viability (NCI-H2405; first compound 0.8 µM): 0.575
relative viability (NCI-H2405; first compound 2.53 µM): 0.511
relative viability (NCI-H2405; first compound 8 µM): 0.535
relative viability (NCI-H460; first compound 0.08 µM): 0.169
relative viability (NCI-H460; first compound 0.8 µM): 0.227
relative viability (NCI-H460; first compound 2.53 µM): 0.134
relative viability (NCI-H460; first compound 8 µM): 0.156
relative viability (EMC-BAC-2; first compound 0.08 µM): 0.511
relative viability (EMC-BAC-2; first compound 0.8 µM): 0.547
relative viability (EMC-BAC-2; first compound 2.53 µM): 0.536
relative viability (EMC-BAC-2; first compound 8 µM): 0.485
relative viability (NCI-H2009; first compound 0.08 µM): 0.223
relative viability (NCI-H2009; first compound 0.8 µM): 0.277
relative viability (NCI-H2009; first compound 2.53 µM): 0.208
relative viability (NCI-H2009; first compound 8 µM): 0.186
relative viability (NCI-H520; first compound 0.08 µM): 0.303
relative viability (NCI-H520; first compound 0.8 µM): 0.186
relative viability (NCI-H520; first compound 2.53 µM): 0.246
relative viability (NCI-H520; first compound 8 µM): 0.214
